What was measured:
Type in all cases: in vivo
[1] = test system: horseweed (Erigeron canadensis); assay: Test A postemergence application, visual injury rating 0-100
Procedure, shortened: (§1)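 Directed preemergence spray onto seeded soil or postemergence spray onto 2-10 cm plants (loam plus sand); compound carried in surfactant-containing non-phytotoxic solvent. Injury rated by eye after 10 d greenhouse growth; 0 = no effect, 100 = complete control.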

[2] = test system: oat, wild (wild oat, Avena fatua); assay: as above
Procedure, shortened: as §1

corn (Zea mays) [3] = assay: as above
Procedure, shortened: as §1

[4] = test system: barnyardgrass (Echinochloa crus-galli); assay: as above
Procedure, shortened: as §1

soybean (Glycine max) [5] = assay: as above
Procedure, shortened: as §1

[6] = test system: ragweed (common ragweed, Ambrosia artemisiifolia); assay: as above
Procedure, shortened: as §1

[7] = test system: green foxtail (Setaria viridis); assay: as above
Procedure, shortened: as §1

[8] = test system: blackgrass (Alopecurus myosuroides); assay: as above
Procedure, shortened: as §1

[9] = test system: wheat (Triticum aestivum); assay: as above
Procedure, shortened: as §1

[10] = test system: palmer (palmer amaranth, palmer pigweed, Amaranthus palmeri); assay: as above
Procedure, shortened: as §1

kochia (Bassia scoparia) [11] = assay: as above
Procedure, shortened: as §1

[12] = test system: ryegrass, Italian (italian ryegrass, Lolium multiflorum); assay: as above
Procedure, shortened: as §1

[13] = test system: galium (catchweed bedstraw, Galium aparine); assay: as above
Procedure, shortened: as §1

[14] = test system: sedge, umbrella (small-flower umbrella sedge, Cyperus difformis); assay: Test B flooded paddy test, visual plant response rating 0-100; conditions: 250 g ai/ha, Flood, applied to paddy water, evaluated after 13 days
Procedure, shortened: (§2)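 Plants were grown to the 2-leaf stage, then pots were flooded to 3 cm above the soil and compound was applied directly to the paddy water, with that depth kept throughout.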

[15] = test system: ducksalad (Heteranthera limosa); assay: as above; conditions: 250 g ai/ha, Flood, applied to paddy water, evaluated after 13 days
Procedure, shortened: as §2

rice (Oryza sativa) = assay: as above; conditions: 250 g ai/ha, Flood, applied to paddy water, evaluated after 13 days
Procedure, shortened: as §2

[16] = test system: barnyardgrass (Echinochloa crusgalli); assay: as above; conditions: 250 g ai/ha, Flood, applied to paddy water, evaluated after 13 days
Procedure, shortened: as §2

[17] = test system: oat, wild (wild oat, Avena fatua); assay: Test A preemergence soil spray, visual injury rating 0-100; conditions: 10 days
Procedure, shortened: as §1

corn (Zea mays) [18] = assay: as above; conditions: 10 days
Procedure, shortened: as §1

[19] = test system: barnyardgrass (Echinochloa crus-galli); assay: as above; conditions: 10 days
Procedure, shortened: as §1

soybean (Glycine max) [20] = assay: as above; conditions: 10 days
Procedure, shortened: as §1

[21] = test system: ragweed (common ragweed, Ambrosia artemisiifolia); assay: as above; conditions: 10 days
Procedure, shortened: as §1

[22] = test system: green foxtail (Setaria viridis); assay: as above; conditions: 10 days
Procedure, shortened: as §1

[23] = test system: blackgrass (Alopecurus myosuroides); assay: as above; conditions: 10 days
Procedure, shortened: as §1

[24] = test system: wheat (Triticum aestivum); assay: as above; conditions: 10 days
Procedure, shortened: as §1

[25] = test system: palmer (palmer amaranth, palmer pigweed, Amaranthus palmeri); assay: as above; conditions: 10 days
Procedure, shortened: as §1

kochia (Bassia scoparia) [26] = assay: as above; conditions: 10 days
Procedure, shortened: as §1

[27] = test system: ryegrass, Italian (italian ryegrass, Lolium multiflorum); assay: as above; conditions: 10 days
Procedure, shortened: as §1

[28] = 62 g ai/ha, postemergence, 10 days, 0 = no effect, 100 = complete control
[29] = Postemergence, 16 g ai/ha, greenhouse 10 days, 0 no effect, 100 complete control
[30] = 62 g ai/ha, 0 = no effect, 100 = complete control

What does the source list for `CSCCOC(=O)C1CC(NC(=O)C2(C)CN(c3cc(F)cc(F)c3)C(=O)O2)C1` (racemic) [Compound 120]?
Horseweed plant response rating (0-100) [1, 28]: 10; Horseweed plant response rating (0 to 100 scale) [1, 29]: 10; Oat, Wild plant response rating (0-100) [2, 28]: 80; Oat, Wild plant response rating (0 to 100 scale) [2, 29]: 30; Corn plant response rating (0-100) (corn (Zea mays) [3]; [28]): 100; Corn plant response rating (0 to 100 scale) (corn (Zea mays) [3]; [29]): 90; Barnyardgrass plant response rating (0-100) [4, 28]: 100; Barnyardgrass plant response rating (0 to 100 scale) [4, 29]: 50; Soybean plant response rating (0-100) (soybean (Glycine max) [5]; [28]): 80; Soybean plant response rating (0 to 100 scale) (soybean (Glycine max) [5]; [29]): 50; Ragweed plant response rating (0-100) [6, 28]: 40; Ragweed plant response rating (0 to 100 scale) [6, 29]: 20; Foxtail, Green plant response rating (0-100) [7, 28]: 90; Foxtail, Green plant response rating (0 to 100 scale) [7, 29]: 60; Blackgrass plant response rating (0-100) [8, 28]: 90; Blackgrass plant response rating (0 to 100 scale) [8, 29]: 70; Wheat plant response rating (0-100) [9, 28]: 90; Wheat plant response rating (0 to 100 scale) [9, 29]: 90; Pigweed, Palmer plant response rating (0-100) [10, 28]: 70; Pigweed, Palmer plant response rating (0 to 100 scale) [10, 29]: 10; Kochia plant response rating (0-100) (kochia (Bassia scoparia) [11]; [28]): 80; Kochia plant response rating (0 to 100 scale) (kochia (Bassia scoparia) [11]; [29]): 0; Ryegrass, Italian plant response rating (0-100) [12, 28]: 70; Ryegrass, Italian plant response rating (0 to 100 scale) [12, 29]: 10; Galium plant response rating (0-100) [13, 28]: 70; Galium plant response rating (0 to 100 scale) [13, 29]: 20; Plant response rating, Sedge, Umbrella (0 to 100 scale, 0 is no effect and 100 is complete control) [14]: 0; Plant response rating, Ducksalad (0 to 100 scale, 0 is no effect and 100 is complete control) [15]: 0; Plant response rating, Rice (0 to 100 scale, 0 is no effect and 100 is complete control) (rice (Oryza sativa)): 0; Plant response rating, Barnyardgrass (0 to 100 scale, 0 is no effect and 100 is complete control) [16]: 0; Oat, Wild plant response rating ([17]; 16 g ai/ha, 0 to 100 scale): 90; Oat, Wild plant response rating (0-100) [17, 30]: 90; Corn plant response rating (corn (Zea mays) [18]; 16 g ai/ha, 0 to 100 scale): 0; Corn plant response rating (0-100) (corn (Zea mays) [18]; [30]): 80; Barnyardgrass plant response rating ([19]; 16 g ai/ha, 0 to 100 scale): 0; Barnyardgrass plant response rating (0-100) [19, 30]: 60; Soybean plant response rating (soybean (Glycine max) [20]; 16 g ai/ha, 0 to 100 scale): 0; Soybean plant response rating (0-100) (soybean (Glycine max) [20]; [30]): 0; Ragweed plant response rating ([21]; 16 g ai/ha, 0 to 100 scale): 10; Ragweed plant response rating (0-100) [21, 30]: 0; Foxtail, Green plant response rating ([22]; 16 g ai/ha, 0 to 100 scale): 20; Foxtail, Green plant response rating (0-100) [22, 30]: 20; Blackgrass plant response rating ([23]; 16 g ai/ha, 0 to 100 scale): 40; Blackgrass plant response rating (0-100) [23, 30]: 80; Wheat plant response rating ([24]; 16 g ai/ha, 0 to 100 scale): 20; Wheat plant response rating (0-100) [24, 30]: 70; Pigweed, Palmer plant response rating ([25]; 16 g ai/ha, 0 to 100 scale): 0; Pigweed, Palmer plant response rating (0-100) [25, 30]: 20; Kochia plant response rating (kochia (Bassia scoparia) [26]; 16 g ai/ha, 0 to 100 scale): 0; Kochia plant response rating (0-100) (kochia (Bassia scoparia) [26]; [30]): 30; Ryegrass, Italian plant response rating ([27]; 16 g ai/ha, 0 to 100 scale): 10; Ryegrass, Italian plant response rating (0-100) [27, 30]: 80
